Counter-ions that a name gives are not always drawn.
Experiments:
Assay type in all cases: cell-based
[1] = target: T1, human TGR5 (Homo sapiens, UniProt Q8TDU6); assay: cAMP production increasing activity in human TGR5 expressing CHO cells; conditions: test compound 1 μM, 30 min; 1 μM lithocholic acid = 100%, no addition = 0%; average of 3 groups
T1 construct: expressed in transfected cells; host or cells: CHO cells
T1 sequence (Q8TDU6 1-330): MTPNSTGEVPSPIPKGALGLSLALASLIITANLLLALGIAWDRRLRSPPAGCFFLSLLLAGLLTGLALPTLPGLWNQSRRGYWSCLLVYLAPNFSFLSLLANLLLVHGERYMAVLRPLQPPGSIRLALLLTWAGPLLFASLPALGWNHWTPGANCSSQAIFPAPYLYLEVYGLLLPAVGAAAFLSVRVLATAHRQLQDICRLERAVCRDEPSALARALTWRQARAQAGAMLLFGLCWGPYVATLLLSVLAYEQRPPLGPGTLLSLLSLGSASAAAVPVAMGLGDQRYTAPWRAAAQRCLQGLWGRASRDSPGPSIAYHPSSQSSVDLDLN
Method: As the assay buffer, Hank's balanced salt solution (HBSS, Invitrogen) supplemented with 0.1% bovine serum albumin (BSA, Sigma) and 0.5 mM 3-isobutyl-1-methylxanthine (IBMX, Sigma) was used. A test compound sample (1 μM) diluted with the assay buffer was added to the cells. The cells were incubated at 37° C. for 30 min. and the supernatant was suctioned. The intracellular cAMP amount increased by the stimulation of the test compound was quantitatively determined using a HitHunter™ EFC Cyclic AMP Chemiluminescence Assay Kit (ABI) kit.

[2] = target: T2, rat TGR5 (Rattus norvegicus, UniProt Q80T02); assay: cAMP production increasing activity in rat type TGR5 expressing CHO cells; conditions: 0.5 h, read-out: cAMP producing activity (control %)
T2 construct: expressed in transfected cells; host or cells: CHO cells
T2 sequence (Q80T02 1-329): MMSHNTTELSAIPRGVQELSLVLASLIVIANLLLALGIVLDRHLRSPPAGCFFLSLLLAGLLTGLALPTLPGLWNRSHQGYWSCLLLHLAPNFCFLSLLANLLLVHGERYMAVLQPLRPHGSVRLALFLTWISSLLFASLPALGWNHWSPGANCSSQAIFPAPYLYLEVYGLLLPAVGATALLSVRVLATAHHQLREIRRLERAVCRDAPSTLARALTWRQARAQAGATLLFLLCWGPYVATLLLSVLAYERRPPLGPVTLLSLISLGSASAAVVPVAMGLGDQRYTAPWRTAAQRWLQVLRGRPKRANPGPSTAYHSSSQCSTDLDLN
Method: (§1) After culture, the cells were detached with 0.5 mM EDTA/PBS, washed with PBS, and suspended in Buffer 1 (HBSS+0.1% BSA, 25 mM HEPES pH 7.3, 0.5 mM IBMX) at a density of 1×10^7 cells/ml. The obtained cell suspension (460 μl), anti-cAMP acceptor beads (23 μl) of AlphaScreen cAMP assay kit (Perkin Elmer) and Buffer 1 (667 μl) were mixed and dispensed to a white 96 well plate (Costar) by 10 μl. Then, a test compound diluted with Buffer 1 was added to each well by 10 μl. At this time, one row of the plate was free of the cell suspension but added with anti-cAMP acceptor beads (9 μl) and Buffer 1 (441 μl) alone, and serial dilutions of cAMP were added instead of the test compound and used as the standard. A mixture of the cell suspension and the test compound contained in the plate was allowed to react at room temperature for 30 min. […] The plate was shaken at room temperature for 2.5 hrs and fluorescence intensity was measured by Fusion α (Parkin Elmer), and the cAMP concentration of each well was calculated using the cAMP standard on each plate.

[3] = target: T1, human TGR5; assay: cAMP production increasing activity in human TGR5 expressing CHO cells; conditions: read-out: EC50 value (concentration necessary to make the cAMP production amount 50%)
[4] = tested on: guinea pig TGR5; assay: cAMP production increasing activity in guinea pig TGR5 expressing CHO cells; conditions: test compound 2 μM; 10 μM lithocholic acid = 100%; average of 3 groups
Method: as §1, with “The guinea pig type TGR5 expressing CHO cells were seeded in one 150 cm^2 flask at 1×10^7 cells, and cultured overnight at 37° C., 5% CO2. After” for “After”

Row | cAMP production increasing activity (control %) [1] [control %] | activation at 2 µM [2] [%] | EC50 [3] [nM] | SMILES | cAMP producing activity (control %) [4] [control %]
1 | 97 | – | – | CC(C)(C)CN1C(=O)[C@@H](CC(=O)NCc2ccccc2F)O[C@@H](c2cccc(N)c2)c2cc(Cl)ccc21 (relative stereo) [Reference Example 1, 2-[3,5-trans-5-(3-aminophenyl)-7-chloro-1-neopentyl-2-oxo-1,2,3,5-tetrahydro-4,1-benzoxazepin-3-yl]-N-(2-fluorobenzyl)acetamide] | –
2 | 108 | – | – | CC(C)(C)CN1C(=O)[C@@H](CC(=O)NCc2ccccc2F)O[C@@H](c2cccc(C3OCCO3)c2)c2cc(Cl)ccc21 (relative stereo) [Reference Example 2, 2-[3,5-trans-7-chloro-5-[3-([1,3]dioxolan-2-yl)phenyl]-1-neopentyl-2-oxo-1,2,3,5-tetrahydro-4,1-benzoxazepin-3-yl]-N-(2-fluorobenzyl)acetamide] | –
3 | 80 | – | – | CC(C)(C)CN1C(=O)[C@@H](CC(=O)NCc2ccccc2F)O[C@@H](c2cccc(CNS(C)(=O)=O)c2)c2cc(Cl)ccc21 (relative stereo) [Reference Example 4, 2-[3,5-trans-7-chloro-5-[3-(methanesulfonylaminomethyl)phenyl]-1-neopentyl-2-oxo-1,2,3,5-tetrahydro-4,1-benzoxazepin-3-yl]-N-(2-fluorobenzyl)acetamide] | –
4 | 116 | – | – | CC(C)(C)CN1C(=O)[C@@H](CC(=O)NCc2ccccc2F)O[C@@H](c2cccc(CNC(=O)C(F)(F)F)c2)c2cc(Cl)ccc21 (relative stereo) [Reference Example 5, N-[3-[3,5-trans-7-chloro-3-[2-[(2-fluorobenzyl)amino]-2-oxoethyl]-1-neopentyl-2-oxo-1,2,3,5-tetrahydro-4,1-benzoxazepin-5-yl]benzyl]-2,2,2-trifluoroacetamide] | –
5 | 128 | – | – | CC(C)(C)CN1C(=O)[C@@H](CC(=O)NCc2ccccc2F)O[C@@H](c2cccc(CO)c2)c2cc(Cl)ccc21 (relative stereo) [Reference Example 9, 2-[3,5-trans-7-chloro-5-[3-(hydroxymethyl)phenyl]-1-neopentyl-2-oxo-1,2,3,5-tetrahydro-4,1-benzoxazepin-3-yl]-N-(2-fluorobenzyl)acetamide] | –
6 | – | 107 | < 100 | CC(=O)NCc1cccc(C2OC(CC(=O)NCC3CCCCCC3)C(=O)N(CC(C)(C)C)c3ccc(Cl)cc32)c1 (stereo not drawn) [Example 17, 2-[3,5-trans-5-[3-(acetylaminomethyl)phenyl]-7-chloro-1-neopentyl-2-oxo-1,2,3,5-tetrahydro-4,1-benzoxazepin-3-yl]-N-(cycloheptylmethyl)acetamide] | –
7 | – | – | < 100 | Cc1cc(C(=O)N2Cc3ccccc3N(CC(C)C)C(=O)C2CC(=O)NCc2ccccc2F)ccn1 (centres unmarked) [Example 23B, N-(2-fluorobenzyl)-2-[1-isobutyl-4-(2-methylisonicotinoyl)-2-oxo-2,3,4,5-tetrahydro-1H-1,4-benzodiazepin-3-yl]acetamide] | –
8 | – | 108 | < 100 | CC(C)(C)CN1C(=O)C(CC(=O)NCc2ccccc2F)N(Cc2ccncc2)Cc2ccccc21 (centres unmarked) [Example 30B, N-(2-fluorobenzyl)-2-[1-neopentyl-2-oxo-4-(pyridin-4-ylmethyl)-2,3,4,5-tetrahydro-1H-1,4-benzodiazepin-3-yl]acetamide] | –
9 | – | – | – | O=C(c1cc(Cl)cc(Cl)c1)N1CCOc2nccc(-c3ccccc3)c2C1 [Example 32C, 4-(3,5-dichlorobenzoyl)-6-phenyl-2,3,4,5-tetrahydropyrido[3,2-f][1,4]oxazepine] | 89
10 | – | – | < 100 | FC(F)(F)c1cc(CCN2CCOc3nccc(-c4ccccc4)c3C2)cc(C(F)(F)F)c1 [Example 45C, 4-{2-[3,5-bis(trifluoromethyl)phenyl]ethyl}-6-phenyl-2,3,4,5-tetrahydropyrido[3,2-f][1,4]oxazepine hydrochloride] | –
11 | – | – | < 100 | CC(C)(C)CN1C(=O)C(CC(=O)NCc2ccccc2F)OC(c2cccc(Cn3ccnc3)c2)c2cc(Cl)ccc21 (stereo not drawn) [Example 60, 2-[3,5-trans-7-chloro-5-[3-(1H-imidazol-1-ylmethyl)phenyl]-1-neopentyl-2-oxo-1,2,3,5-tetrahydro-4,1-benzoxazepin-3-yl]-N-(2-fluorobenzyl)acetamide] | –
12 | – | – | < 100 | O=S(=O)(c1cc(C(F)(F)F)cc(C(F)(F)F)c1)N1CCCOc2nccc(-c3ccc(F)cc3)c2C1 [Example 60C, 5-{[3,5-bis(trifluoromethyl)phenyl]sulfonyl}-7-(4-fluorophenyl)-3,4,5,6-tetrahydro-2H-pyrido[2,3-b][1,5]oxazocine] | –
13 | – | 101 | < 100 | Fc1ccc(-c2ccnc3c2CN(Cc2cc(C(F)(F)F)cc(C(F)(F)F)c2)CCCCO3)cc1 [Example 61C, 6-[3,5-bis(trifluoromethyl)benzyl]-8-(4-fluorophenyl)-2,3,4,5,6,7-hexahydropyrido[2,3-b][1,5]oxazonine] | –

Row | SMILES | cAMP production increasing activity (control %) [1] [control %] | activation at 2 µM [2] [%] | EC50 [3] [nM] | cAMP producing activity (control %) [4] [control %]
14 | COC(=O)NCc1cccc(C2OC(CC(=O)NCC3CCCCC3)C(=O)N(CC(C)(C)C)c3ccc(Cl)cc32)c1 (stereo not drawn) [Example 30, methyl [3-[3,5-trans-7-chloro-3-[2-[(cyclohexylmethyl)amino]-2-oxoethyl]-1-neopentyl-2-oxo-1,2,3,5-tetrahydro-4,1-benzoxazepin-5-yl]benzyl]carbamate] | – | 114 | < 100 | 86
15 | O=S(=O)(c1cccc2ccccc12)N1CCOc2nccc(-c3ccccc3)c2C1 [Example 42C, 4-(1-naphthylsulfonyl)-6-phenyl-2,3,4,5-tetrahydropyrido[3,2-f][1,4]oxazepine] | – | – | < 100 | 104
16 | COC(=O)NCc1cccc(C2OC(CC(=O)NCc3ccccc3F)C(=O)N(CC(C)C)c3ccc(Cl)cc32)c1 (stereo not drawn) [Example 43, methyl [3-[3,5-trans-7-chloro-3-[2-[(2-fluorobenzyl)amino]-2-oxoethyl]-1-isobutyl-2-oxo-1,2,3,5-tetrahydro-4,1-benzoxazepin-5-yl]benzyl]carbamate] | – | – | < 100 | 82
